ChEMBL document CHEMBL4041507, “Design, synthesis and biological evaluation of [1,2,4]triazolo[1,5-a]pyrimidines as potent lysine specific demethylase 1 (LSD1/KDM1A) inhibitors” (Eur J Med Chem, 2017)
pIC50: −log10 of the molar value. The source made the active and inactive calls. No cut-off for these calls is given here.

Key:
[1] = biological target: Lysine-specific histone demethylase 1A (Homo sapiens, UniProt O60341)
Description: Inhibition of recombinant human LSD1 (157 to 852 residues) expressed in Escherichia coli BL21(DE3) using H3K4me2 as substrate preincubated for 1 hr followed by substrate addition by fluorescence assay

[2] = test system: MGC-803; experiment: cells; settings: Homo sapiens, MGC-803, read-out: GI
Description: Cytotoxicity against human MGC803 cells assessed as growth inhibition at 10 uM by MTT assay relative to control

[3] = test system: ECa-109 cell line; experiment: cells; settings: Homo sapiens, ECa-109, read-out: GI
Description: Cytotoxicity against human EC109 cells assessed as growth inhibition at 10 uM by MTT assay relative to control

[4] = test system: A549; experiment: cells; settings: Homo sapiens, A549, read-out: GI
Description: Cytotoxicity against human A549 cells assessed as growth inhibition at 10 uM by MTT assay relative to control

[5] = test system: PC-9; experiment: cells; settings: Homo sapiens, PC-9, read-out: GI
Description: Cytotoxicity against human PC9 cells assessed as growth inhibition at 10 uM by MTT assay relative to control

[6] = test system: A549; experiment: cells; settings: Homo sapiens
Description: Cytotoxicity against human A549 cells assessed as growth inhibition by MTT assay

[7] = test system: PC-9; experiment: cells; settings: Homo sapiens
Description: Cytotoxicity against human PC9 cells assessed as growth inhibition by MTT assay

[8] = test system: MGC-803; experiment: cells; settings: Homo sapiens
Description: Cytotoxicity against human MGC803 cells assessed as growth inhibition by MTT assay

[9] = test system: ECa-109 cell line; experiment: cells; settings: Homo sapiens
Description: Cytotoxicity against human EC109 cells assessed as growth inhibition by MTT assay

[10] = test system: MGC-803; experiment: Anti-migratory activity against human MGC803 cells at 10 uM after 24 hrs by Hoechst 33258 staining based transwell assay relative to control; assay type: functional; settings: MGC-803, 24 h
[11] = test system: MGC-803; experiment: Anti-migratory activity against human MGC803 cells after 24 hrs by Hoechst 33258 staining based transwell assay; assay type: functional, cell-based
[12] = test system: MGC-803; experiment: Effect on E-cadherin expression in human MGC803 cells at 5 to 10 uM after 24 hrs by Western blot method; assay type: functional, cell-based
[13] = test system: MGC-803; experiment: Effect on N-cadherin expression in human MGC803 cells at 5 to 10 uM after 24 hrs by Western blot method; assay type: functional, cell-based
[14] = test system: PC-9; experiment: Anti-migratory activity against human PC9 cells after 24 hrs by Hoechst 33258 staining based transwell assay; assay type: functional, cell-based
[15] = test system: PC-9; experiment: Increase in E-cadherin expression in human PC9 cells at 5 to 10 uM after 24 hrs by Western blot method; assay type: functional, cell-based
[16] = test system: PC-9; experiment: Decrease in N-cadherin expression in human PC9 cells at 5 to 10 uM after 24 hrs by Western blot method; assay type: functional, cell-based
[17] = test system: PC-9; experiment: Potency index, ratio of 5-fluorouracil IC50 to compound IC50 for human PC9 cells; assay type: functional

Row | SMILES | pIC50 [1] | inhibition of growth at 10 µM [2] | inhibition of growth at 10 µM [3] | inhibition of growth at 10 µM [4] | inhibition of growth at 10 µM [5] | pIC50 [6] | pIC50 [7] | pIC50 [8] | pIC50 [9] | inhibition at 10 µM [10] | Activity [11] | Activity [12] | Activity [13] | Activity [14] | Activity [15] | Activity [16] | Ratio IC50 [17]
1 | Cc1ccc(Nc2cc(C)nc3nc(SCc4ccccc4)nn23)cc1 | < 5.00 | 26% | 44.7% | 33.7% | 30.2% | – | – | – | – | – | – | – | – | – | – | – | –
2 | Cc1cc(Nc2ccc(Br)cc2)n2nc(SCc3nc4ccccc4[nH]3)nc2n1 | < 5.00 | 36.7% | 43.8% | 35.2% | 36.4% | – | – | – | – | – | – | – | – | – | – | – | –
3 | CCC1(c2ccc(Nc3cc(C)nc4nc(SCc5nc6ccccc6[nH]5)nn34)cc2)CCC(=O)NC1=O (stereo not given) | < 5.00 | 1.1% | 38.2% | 49.2% | 47.9% | 4.76 | 4.91 | – | – | – | – | – | – | – | – | – | –
4 | O=c1[nH]cc(F)c(=O)[nH]1 [FLUOROURACIL] | – | – | – | – | – | 4.86 | 5.70 | 4.99 | 4.59 | – | – | – | – | – | – | – | –
5 | Cc1cc(Nc2ccccc2)n2nc(SCc3nc4ccccc4[nH]3)nc2n1 | < 5.00 | 17.9% | 39.9% | 38% | 31.6% | – | – | – | – | – | – | – | – | – | – | – | –
6 | Cc1cc(Nc2ccc(F)cc2)n2nc(SCc3nc4ccccc4[nH]3)nc2n1 | < 5.00 | 19.2% | 39.7% | 36.6% | 27.6% | – | – | – | – | – | – | – | – | – | – | – | –
7 | Cc1cc(NNC(N)=S)n2nc(SCc3ccccc3)nc2n1 | 6.81 | 2.1% | 14.2% | 25.6% | 30.7% | – | – | – | – | 21% | Dose-dependent effect | inactive | inactive | Dose-dependent effect | Active | Active | –
8 | Cc1cc(OCCN2CCCC2)n2nc(SCc3ccccc3)nc2n1 | < 5.00 | 28.8% | 11.4% | 49.8% | 43.6% | 4.64 | – | – | – | – | – | – | – | – | – | – | –
9 | Cc1cc(N2CCC(N3CCCCC3)CC2)n2nc(SCc3ccccc3)nc2n1 | < 5.00 | 32.8% | 0.3% | 56.5% | 35.6% | 5.05 | – | – | – | – | – | – | – | – | – | – | –
10 | Cc1cc(N2CCOCC2)n2nc(SCc3ccccc3)nc2n1 | < 5.00 | 31% | 10.6% | 45.4% | 27.3% | – | – | – | – | – | – | – | – | – | – | – | –
11 | Cc1cc(NCCCN2CCOCC2)n2nc(SCc3ccccc3)nc2n1 | < 5.00 | 24.9% | 9.3% | 49.2% | 51.9% | 4.77 | 4.82 | – | – | – | – | – | – | – | – | – | –
12 | Cc1cc(Nc2ccc(C(=O)O)cc2)n2nc(SCc3nc4ccccc4[nH]3)nc2n1 | < 5.00 | 0.4% | 4.5% | 5.6% | 11.9% | – | – | – | – | – | – | – | – | – | – | – | –
13 | Cc1cc(Nc2cccc3c2CN(C2CCC(=O)NC2=O)C3=O)n2nc(SCc3nc4ccccc4[nH]3)nc2n1 (stereo not given) | < 5.00 | 11.4% | 32.2% | 48.2% | 52.4% | 4.70 | 4.82 | – | – | – | – | – | – | – | – | – | –
14 | COc1cc(/C=C/C(=O)c2ccc(Nc3cc(C)nc4nc(SCc5nc6ccccc6[nH]5)nn34)cc2)cc(OC)c1OC | < 5.00 | 81.3% | 76.4% | 71.6% | 93.1% | 5.06 | 6.24 | 5.61 | 5.49 | – | – | – | – | – | – | – | 4
15 | Cc1cc(Nc2ccc(F)cc2)n2nc(SCc3ccccc3)nc2n1 | < 5.00 | 19.7% | 37.6% | 41.8% | 43.5% | – | – | – | – | – | – | – | – | – | – | – | –
16 | Cc1cc(Nc2ccccc2)n2nc(SCc3ccccc3)nc2n1 | < 5.00 | 35% | 12.9% | 50.2% | 40.2% | 4.78 | – | – | – | – | – | – | – | – | – | – | –
